Consider one molecule from patent publication US20130022620A1, “ASSAYS AND METHODS PERTAINING TO PRE-AMYLOID INTERMEDIATES” (priority 2011, published 2013).

Series [1] concerns the target T1, sRAGE (Homo sapiens, UniProt Q15109).
T1 construct: the soluble extracellular domain of RAGE (sRAGE); made in house; host or cells: Sf9 insect cells (baculovirus)
The series can be described thus: Surface plasmon resonance binding to immobilized sRAGE. The conditions noted are these: 20 μM h-IAPP. The method, then:
A 20 μM h-IAPP solution was prepared in 16 mM tris HCl buffer (pH 7.4) and aliquots of the reaction were analyzed for binding at various incubation times after peptide dissolution. All SPR binding experiments were carried out on a GE Healthcare SPR instrument in the laboratory of Dr. Donald Landry at Columbia University Medical Center.
Background: SPR reads the build-up and loss of mass on a sensor chip optically.

Series [2] deals with T1, sRAGE. The series can be described thus: Tryptophan fluorescence quenching assay of sRAGE binding. The settings on record: sRAGE added at different time points of the reaction, 1:1 molar ratio. The source says:
The quenching of tryptophan fluorescence indicates binding. Fluorescence measurements were made at right angle in a […] dual path length quartz cuvette, using a Photon Technology International fluorescent spectrometer (280 nm excitation and 350 nm emission). Background fluorescence from buffer and IAPP peptides were negligible. The fluorescence quantum yield reported for each time point is an average of 20 reads over 20 seconds (2.5 nm bandwidth and 1 second integration time). Final solution conditions contained 16 mM tris HCl (pH 7.4).

The format of series [3] is physicochemical. Here is the method: We recorded 2D-IR spectra of the intermediate species. The results are consistent with a lack of beta sheet structure and support the CD data (FIG. 4B). […] Samples of h-IAPP intermediates and h-IAPP amyloid fibrils were pelleted at 20,000 G for 20 minutes and the amount of soluble peptide remaining in the supernatant was measured. […] Characterization of the species in the supernatant and resuspended pellet by thioflavin-T and TEM, before addition of the solutions to cultured cells, confirm the absence of amyloid in the soluble phase and the presence of amyloid in the resuspended pellet. […] ANS is a small hydrophobic dye which has been widely used in protein folding studies. It typically binds to partially structured states which are rich in secondary structure, compact, but which have not yet established the final tertiary structure. […] The dye did bind to the final amyloid fibrils; an effect that is mediated in part by electrostatic interactions. A set of p-cyano-phenylalanine (p-cyanoPhe) analogs of h-IAPP were examined to probe further the nature of the toxic intermediate species. h-IAPP contains two phenylalanines at positions 15 and 23 and a single tyrosine located at the C-terminus. A set of three analogs were prepared in which one aromatic residue was replaced by p-cyanoPhe. […] It can also be quenched via FRET to tyrosine. p-CyanoPhe fluorescence is high for unaggregated IAPP and is quenched in the amyloid fibers. The intermediate species have high p-cyanoPhe fluorescence intensity and the value is the same as that of freshly dissolved material.

The nature of the next series: ANS binding assay. The format is physicochemical. The settings on record: 10 μM ANS, pH 7.4. The method, then:
8-Anilinonaphthalenesulfonic Acid (ANS) is a small hydrophobic dye which is been widely used in protein folding studies. It typically binds to partially structured states which are rich in secondary structure, compact, but which have not yet established the final tertiary structure, thus this dye can be used to detect a molten globule-like character of proteins. Fluorescence spectra of ANS-peptide complexes were measured using a Spex Fluorolog fluorimeter at 25 C (370 nm excitation and 460 nm emission). ANS-peptide complexes were monitored by adding aliquots of human IAPP to a 1 cm cuvette containing 10 μM ANS at various times along the amyloid formation reaction. Final solution conditions contained 16 mM tris HCl and 10 μM ANS (pH 7.4). […] All values represent means±SEM (n=3).

Series [4] can be described thus: Far-UV CD of h-IAPP species. The format is physicochemical. The conditions noted are these: at time points of toxicity. Here is the method:
CD measurements of IAPP, sRAGE and IAPP/sRAGE reactions were taken at various incubation times. Far-UV CD experiments monitor the development of secondary structure of h-IAPP species and give insight into the conformational requirement for IAPP/RAGE-binding. All CD experiments were performed on an Applied Photophysics circular dichroism spectrophotometer by directly transferring 300 μL of peptide solution from kinetic assays into a 0.1 cm quartz cuvette a few minutes prior to data collection. The CD spectra for sRAGE and tris HCl buffer was subtracted from all RAGE/IAPP mixtures. The final far-UV CD data was collected over the range of 190 to 260 nm. Final solution conditions contained 16 mM tris HCl (pH 7.4).

T1 sequence (Q15109 23-342): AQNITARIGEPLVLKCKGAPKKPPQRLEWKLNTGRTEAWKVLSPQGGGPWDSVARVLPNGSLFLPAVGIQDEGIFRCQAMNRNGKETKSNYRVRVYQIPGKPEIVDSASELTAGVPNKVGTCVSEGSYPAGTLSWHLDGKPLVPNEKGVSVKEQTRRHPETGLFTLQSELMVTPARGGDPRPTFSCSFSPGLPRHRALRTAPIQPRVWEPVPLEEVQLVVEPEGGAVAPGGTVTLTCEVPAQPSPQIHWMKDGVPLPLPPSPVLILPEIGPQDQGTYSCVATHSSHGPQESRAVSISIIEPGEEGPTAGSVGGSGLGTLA

In the case of `CC[C@H](C)[C@H](NC(=O)[C@H](C)NC(=O)CNC(=O)[C@H](Cc1ccccc1)NC(=O)[C@H](CC(N)=O)NC(=O)[C@H](CC(N)=O)NC(=O)[C@H](CO)NC(=O)[C@H](CO)NC(=O)[C@H](Cc1c[nH]cn1)NC(=O)[C@@H](NC(=O)[C@H](CC(C)C)NC(=O)[C@H](Cc1ccccc1)NC(=O)[C@H](CC(N)=O)NC(=O)[C@H](C)NC(=O)[C@H](CC(C)C)NC(=O)[C@H](CCCNC(=N)N)NC(=O)[C@H](CCC(N)=O)NC(=O)[C@@H](NC(=O)[C@H](C)NC(=O)[C@@H]1CSSC[C@H](NC(=O)[C@@H](N)CCCCN)C(=O)N[C@@H](CC(N)=O)C(=O)N[C@@H]([C@@H](C)O)C(=O)N[C@@H](C)C(=O)N[C@@H]([C@@H](C)O)C(=O)N1)[C@@H](C)O)C(C)C)C(=O)N[C@@H](CC(C)C)C(=O)N[C@@H](CO)C(=O)N[C@@H](CO)C(=O)N[C@H](C(=O)N[C@@H](CC(N)=O)C(=O)N[C@H](C(=O)NCC(=O)N[C@@H](CO)C(=O)N[C@@H](CC(N)=O)C(=O)N[C@H](C(=O)N[C@@H](Cc1ccc(O)cc1)C(N)=O)[C@@H](C)O)C(C)C)[C@@H](C)O` [h-IAPP, human islet amyloid polypeptide], the “RAGE binding of transiently populated intermediates (SPR)” value on sRAGE [1] (intermediates) was “binds transiently populated intermediates”. The “RAGE binding of monomers or amyloid fibrils (SPR)” value on sRAGE [1] (monomers or amyloid fibrils) was “does not bind to h-IAPP monomers or amyloid fibrils”. Besides, at sRAGE [2], the “binding to sRAGE (tryptophan fluorescence quenching)” value was “wave of fluorescence quenching”. Further, in series [3], the protein pelleted amounted to 6.5%; the “solubility of toxic oligomers (centrifugation)” value is “soluble and cannot be pelleted”; the “solubility of toxic species (ultracentrifugation)” value was “soluble”. For the same molecule, the “protein remained in solution” value in series [3] (20 min) came out at 93.5%. Further, in the series “ANS binding assay”, the “ANS binding to final amyloid fibrils” value is listed as “did bind”; the “ANS binding to monomeric form and intermediates” value is “No ANS binding was observed”. The “secondary structure (far UV CD)” value in series [4] is “some partial helical structure, but no beta sheet structure”.
